Measured values from US9340590B2 (priority 2011, dated 2016).
Where two headings read alike, the source gives them in different places. Positions of bridges follow the written chain, without caps; N, C: chain ends. Non-standard residues stand in square brackets, D forms with d. Residues, ends and D or L forms follow the SMILES beside them. 1Nal = N[C@@H](Cc1cccc2ccccc12)C(=O)O; βAla = NCCC(=O)O

How the values were obtained:
Assay in all cases: cell-based
[1] = molecular target: hNav1.7 (Homo sapiens, UniProt Q15858); format: cell-based; conditions: IonWorks Quattro, read-out: IWQ Use Nav1.7
[2] = molecular target: hNav1.5 (Homo sapiens, UniProt Q14524); conditions: IonWorks Quattro, read-out: IWQ Use Nav1.5
[3] = molecular target: hNav1.3 (Homo sapiens, UniProt Q9NY46); conditions: IonWorks Quattro, read-out: IWQ Use Nav1.3
[4] = use-dependent protocol, hNav1.7
[5] = use-dependent protocol, hNav1.5
[6] = use-dependent protocol, hNav1.3

Sequence of hNav1.3 (Q9NY46 whole entry, looked up): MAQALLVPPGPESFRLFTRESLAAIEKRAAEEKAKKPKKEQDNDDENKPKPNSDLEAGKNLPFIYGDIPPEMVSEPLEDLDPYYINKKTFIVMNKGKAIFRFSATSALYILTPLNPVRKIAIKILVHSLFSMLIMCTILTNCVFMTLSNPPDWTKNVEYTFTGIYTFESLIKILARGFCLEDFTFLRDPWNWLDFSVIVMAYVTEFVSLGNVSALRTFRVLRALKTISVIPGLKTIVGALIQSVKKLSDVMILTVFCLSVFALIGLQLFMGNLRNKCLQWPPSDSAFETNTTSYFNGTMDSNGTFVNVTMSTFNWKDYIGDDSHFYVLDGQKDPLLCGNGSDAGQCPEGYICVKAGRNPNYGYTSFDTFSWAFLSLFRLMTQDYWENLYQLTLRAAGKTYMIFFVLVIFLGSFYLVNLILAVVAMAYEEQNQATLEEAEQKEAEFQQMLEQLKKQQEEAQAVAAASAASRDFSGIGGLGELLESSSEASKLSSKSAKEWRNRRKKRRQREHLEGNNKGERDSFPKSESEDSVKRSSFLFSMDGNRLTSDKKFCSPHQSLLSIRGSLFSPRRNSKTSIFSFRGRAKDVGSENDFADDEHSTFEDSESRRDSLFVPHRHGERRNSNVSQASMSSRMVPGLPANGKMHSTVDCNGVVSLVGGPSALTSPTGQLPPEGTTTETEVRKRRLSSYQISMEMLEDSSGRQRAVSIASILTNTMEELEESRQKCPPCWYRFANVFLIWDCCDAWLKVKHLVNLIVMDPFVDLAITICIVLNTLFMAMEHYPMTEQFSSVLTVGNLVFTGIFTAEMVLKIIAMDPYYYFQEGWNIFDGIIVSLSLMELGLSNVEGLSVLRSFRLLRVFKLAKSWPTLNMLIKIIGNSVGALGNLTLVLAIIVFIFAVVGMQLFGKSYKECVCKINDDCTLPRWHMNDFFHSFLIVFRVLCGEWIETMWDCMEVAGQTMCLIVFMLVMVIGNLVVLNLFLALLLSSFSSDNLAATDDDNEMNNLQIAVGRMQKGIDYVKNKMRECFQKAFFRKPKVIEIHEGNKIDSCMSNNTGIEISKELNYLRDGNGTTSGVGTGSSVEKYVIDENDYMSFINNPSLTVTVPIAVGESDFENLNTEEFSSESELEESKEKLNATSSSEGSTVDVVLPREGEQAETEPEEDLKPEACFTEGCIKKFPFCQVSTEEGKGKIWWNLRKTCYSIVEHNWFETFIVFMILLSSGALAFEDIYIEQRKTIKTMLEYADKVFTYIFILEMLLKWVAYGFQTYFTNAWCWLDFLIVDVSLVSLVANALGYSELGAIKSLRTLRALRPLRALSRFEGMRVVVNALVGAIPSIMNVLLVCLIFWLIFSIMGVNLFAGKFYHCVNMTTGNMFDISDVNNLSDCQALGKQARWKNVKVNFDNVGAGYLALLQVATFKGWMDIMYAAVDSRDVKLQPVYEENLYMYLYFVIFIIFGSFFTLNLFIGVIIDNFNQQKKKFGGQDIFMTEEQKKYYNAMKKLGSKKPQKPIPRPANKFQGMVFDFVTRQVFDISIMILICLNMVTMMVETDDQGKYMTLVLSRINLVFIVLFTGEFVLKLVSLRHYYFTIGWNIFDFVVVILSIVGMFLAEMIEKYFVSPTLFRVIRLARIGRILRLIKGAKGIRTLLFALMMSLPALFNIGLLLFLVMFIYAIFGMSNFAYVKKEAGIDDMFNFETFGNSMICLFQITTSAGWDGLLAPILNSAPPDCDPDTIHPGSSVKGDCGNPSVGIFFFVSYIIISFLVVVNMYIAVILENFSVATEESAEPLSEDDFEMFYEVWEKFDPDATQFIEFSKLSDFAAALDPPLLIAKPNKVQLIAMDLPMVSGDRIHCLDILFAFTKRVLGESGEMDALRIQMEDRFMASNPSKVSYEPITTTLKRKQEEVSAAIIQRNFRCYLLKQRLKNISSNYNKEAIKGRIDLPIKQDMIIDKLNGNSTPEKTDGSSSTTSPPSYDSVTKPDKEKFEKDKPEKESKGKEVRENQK
Sequence of hNav1.5 (Q14524 whole entry, looked up): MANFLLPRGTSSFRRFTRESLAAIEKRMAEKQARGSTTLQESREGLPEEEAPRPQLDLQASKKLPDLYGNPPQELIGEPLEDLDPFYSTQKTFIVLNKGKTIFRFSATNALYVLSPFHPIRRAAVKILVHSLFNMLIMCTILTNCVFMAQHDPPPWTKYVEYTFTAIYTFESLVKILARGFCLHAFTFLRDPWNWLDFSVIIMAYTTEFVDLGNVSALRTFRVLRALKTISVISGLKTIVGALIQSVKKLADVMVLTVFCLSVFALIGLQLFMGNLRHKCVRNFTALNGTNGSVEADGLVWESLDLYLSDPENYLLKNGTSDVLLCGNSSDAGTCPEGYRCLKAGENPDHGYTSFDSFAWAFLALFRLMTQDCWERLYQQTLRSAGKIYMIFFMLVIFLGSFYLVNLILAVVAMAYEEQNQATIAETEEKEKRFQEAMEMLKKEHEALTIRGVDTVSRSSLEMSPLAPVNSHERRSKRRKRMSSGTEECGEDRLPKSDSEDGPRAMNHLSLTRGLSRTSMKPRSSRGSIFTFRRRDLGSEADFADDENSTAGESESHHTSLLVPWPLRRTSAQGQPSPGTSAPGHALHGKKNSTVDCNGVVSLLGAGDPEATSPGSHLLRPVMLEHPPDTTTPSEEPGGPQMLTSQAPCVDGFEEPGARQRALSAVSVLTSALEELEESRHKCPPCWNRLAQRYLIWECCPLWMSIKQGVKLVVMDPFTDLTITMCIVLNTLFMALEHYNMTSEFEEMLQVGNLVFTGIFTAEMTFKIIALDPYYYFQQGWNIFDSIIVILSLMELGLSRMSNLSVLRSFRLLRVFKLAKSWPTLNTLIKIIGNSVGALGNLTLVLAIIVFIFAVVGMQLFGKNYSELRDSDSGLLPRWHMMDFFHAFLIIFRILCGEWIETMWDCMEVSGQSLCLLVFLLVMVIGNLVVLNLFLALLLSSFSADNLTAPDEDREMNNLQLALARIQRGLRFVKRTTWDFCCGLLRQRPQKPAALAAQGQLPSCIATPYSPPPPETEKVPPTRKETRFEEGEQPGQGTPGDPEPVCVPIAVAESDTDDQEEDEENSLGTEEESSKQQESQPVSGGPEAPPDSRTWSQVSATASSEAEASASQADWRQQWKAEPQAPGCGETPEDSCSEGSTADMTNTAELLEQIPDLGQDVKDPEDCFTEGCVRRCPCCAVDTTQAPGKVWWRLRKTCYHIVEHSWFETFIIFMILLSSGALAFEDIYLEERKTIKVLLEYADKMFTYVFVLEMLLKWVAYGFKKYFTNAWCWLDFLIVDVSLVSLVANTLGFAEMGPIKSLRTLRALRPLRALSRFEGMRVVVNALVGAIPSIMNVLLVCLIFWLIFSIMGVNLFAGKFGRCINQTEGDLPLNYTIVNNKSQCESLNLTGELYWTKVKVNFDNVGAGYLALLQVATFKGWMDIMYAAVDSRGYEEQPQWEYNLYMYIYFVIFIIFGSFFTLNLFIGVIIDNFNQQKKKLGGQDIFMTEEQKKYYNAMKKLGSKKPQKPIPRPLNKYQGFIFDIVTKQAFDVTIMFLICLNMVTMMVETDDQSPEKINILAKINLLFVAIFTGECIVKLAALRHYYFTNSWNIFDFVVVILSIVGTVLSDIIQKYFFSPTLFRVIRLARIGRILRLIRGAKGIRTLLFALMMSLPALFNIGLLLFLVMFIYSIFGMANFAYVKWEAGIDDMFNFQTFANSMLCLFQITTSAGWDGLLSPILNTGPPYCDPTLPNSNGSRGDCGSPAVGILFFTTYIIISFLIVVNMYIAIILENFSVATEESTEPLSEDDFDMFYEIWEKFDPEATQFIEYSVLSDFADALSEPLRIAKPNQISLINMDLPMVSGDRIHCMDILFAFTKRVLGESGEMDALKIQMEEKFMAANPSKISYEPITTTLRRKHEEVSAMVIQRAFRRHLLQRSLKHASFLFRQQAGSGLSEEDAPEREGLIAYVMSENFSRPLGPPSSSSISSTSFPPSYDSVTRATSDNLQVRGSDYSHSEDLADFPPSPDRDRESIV

Structure (SMILES) | IC50 ([1]; use-dependent block, hNav1.7) | IC50 ([2]; use-dependent block, hNav1.5) | IC50 ([3]; use-dependent block, hNav1.3) | also measured
CC[C@H](C)[C@@H]1NC(=O)[C@@H]2CSSC[C@@H]3NC(=O)[C@H](C(C)C)NC(=O)[C@H](CC(C)C)NC(=O)[C@H](CC(N)=O)NC(=O)[C@@H]4CCCN4C(=O)[C@H](CCCNC(=N)N)NC(=O)[C@H](CSSC[C@H](NC(=O)[C@@H](N)CC(=O)O)C(=O)N[C@@H](CC(C)C)C(=O)NCC(=O)N[C@@H](Cc4ccccc4)C(=O)N[C@@H](CCSC)C(=O)N[C@@H](CCCNC(=N)N)C(=O)N[C@@H](CCCCN)C(=O)N2)NC(=O)[C@H](CSSC[C@@H](C(=O)N[C@@H](CCCCN)C(=O)N[C@@H](Cc2cccc4ccccc24)C(=O)N[C@@H](Cc2c[nH]c4ccccc24)C(=O)N[C@@H](Cc2ccccc2)C(N)=O)NC(=O)[C@H](Cc2c[nH]c4ccccc24)NC(=O)[C@H](CCCCN)NC(=O)[C@H](Cc2c[nH]cn2)NC(=O)[C@H]([C@@H](C)O)NC(=O)[C@H](CCCNC(=N)N)NC(=O)[C@H](CO)NC3=O)NC(=O)[C@H](CCCCN)NC(=O)[C@H](CC(=O)O)NC(=O)[C@H](CC(N)=O)NC(=O)[C@H](CC(=O)O)NC(=O)[C@@H]2CCCN2C1=O [compound 460] (H-DCLGFMRKCIPDNDKCCRPNLVCSRTHKWCK[1Nal]WF-NH2; disulfide 2-17, 9-23, 16-30) | 0.08 µM | > 5 µM | 0.03 µM | –
CC[C@H](C)[C@@H]1NC(=O)[C@@H]2CSSC[C@@H]3NC(=O)[C@H](C(C)C)NC(=O)[C@H](CC(C)C)NC(=O)[C@H](CC(N)=O)NC(=O)[C@@H]4CCCN4C(=O)[C@H](CCCNC(=N)N)NC(=O)[C@H](CSSC[C@H](NC(=O)[C@@H](N)CC(=O)O)C(=O)N[C@@H](CC(C)C)C(=O)NCC(=O)N[C@@H](C)C(=O)N[C@@H](Cc4ccccc4)C(=O)N[C@@H](CCCNC(=N)N)C(=O)N[C@@H](CCCCN)C(=O)N2)NC(=O)[C@H](CSSC[C@@H](C(=O)N[C@@H](CCCCN)C(=O)N[C@@H](Cc2ccc(O)cc2)C(=O)N[C@H](C(=O)N[C@@H](Cc2ccccc2)C(=O)O)C(C)C)NC(=O)[C@H](Cc2c[nH]c4ccccc24)NC(=O)[C@H](CCCNC(=N)N)NC(=O)[C@H](Cc2c[nH]cn2)NC(=O)[C@H]([C@@H](C)O)NC(=O)[C@H](CCCNC(=N)N)NC(=O)[C@H](CO)NC3=O)NC(=O)[C@H](CCCCN)NC(=O)[C@H](CC(=O)O)NC(=O)[C@H](C(C)C)NC(=O)[C@H](CC(=O)O)NC(=O)[C@@H]2CCCN2C1=O [compound 851] | > 5 µM | > 5 µM | 1.7 µM | –
CC[C@@H]1NC(=O)CNC(=O)[C@H](CC(C)C)NC(=O)[C@@H](NC(=O)[C@@H](N)CC(=O)O)CSSC[C@@H]2NC(=O)[C@@H]3CSSC[C@@H](C(=O)N[C@@H](CCCCN)C(=O)N[C@@H](Cc4ccc(O)cc4)C(=O)N[C@H](C(=O)N[C@@H](Cc4ccccc4)C(N)=O)C(C)C)NC(=O)[C@H](Cc4c[nH]c5ccccc45)NC(=O)[C@H](CCCCN)NC(=O)[C@H](Cc4cnc[nH]4)NC(=O)[C@H]([C@@H](C)O)NC(=O)[C@H](CCCNC(=N)N)NC(=O)[C@H](CO)NC(=O)[C@H](CSSC[C@H](NC(=O)[C@H](CCCCN)NC(=O)[C@H](CCCNC(=N)N)NC(=O)[C@H](CCSC)NC1=O)C(=O)N[C@@H]([C@@H](C)CC)C(=O)N1CCC[C@H]1C(=O)N[C@@H](CC(=O)O)C(=O)N[C@@H](CC(N)=O)C(=O)N[C@@H](CC(=O)O)C(=O)N[C@@H](CCCCN)C(=O)N3)NC(=O)[C@H](C(C)C)NC(=O)[C@H](CC(C)C)NC(=O)[C@H](CC(N)=O)NC(=O)[C@@H]1CCCN1C(=O)[C@H](CCCNC(=N)N)NC2=O [compound 649] | – | – | – | IC50 [1, 4]: 0.69 µM; IC50 [2, 5]: > 5 µM; IC50 [3, 6]: 1.3 µM
CC[C@H](C)[C@@H]1NC(=O)[C@@H]2CSSC[C@@H]3NC(=O)[C@H](C(C)C)NC(=O)[C@H](CC(C)C)NC(=O)[C@H](CC(N)=O)NC(=O)[C@@H]4CCCN4C(=O)[C@H](CCCNC(=N)N)NC(=O)[C@H](CSSC[C@H](NC(=O)[C@@H](N)CC(=O)O)C(=O)N[C@@H](CC(C)C)C(=O)NCC(=O)N[C@@H](Cc4ccccc4)C(=O)N[C@@H](CCSC)C(=O)N[C@@H](CCCNC(=N)N)C(=O)N[C@@H](CCCCN)C(=O)N2)NC(=O)[C@H](CSSC[C@@H](C(=O)N[C@@H](Cc2c[nH]c4ccccc24)C(=O)N[C@@H](Cc2ccc(O)cc2)C(=O)N[C@H](C(=O)N[C@@H](Cc2ccccc2)C(N)=O)C(C)C)NC(=O)[C@H](Cc2c[nH]c4ccccc24)NC(=O)[C@H](CCCCN)NC(=O)[C@H](Cc2c[nH]cn2)NC(=O)[C@H]([C@@H](C)O)NC(=O)[C@H](CCCNC(=N)N)NC(=O)[C@H](CO)NC3=O)NC(=O)[C@H](CCCCN)NC(=O)[C@H](CC(=O)O)NC(=O)[C@H](CC(N)=O)NC(=O)[C@H](CC(=O)O)NC(=O)[C@@H]2CCCN2C1=O [compound 179] (H-DCLGFMRKCIPDNDKCCRPNLVCSRTHKWCWYVF-NH2; disulfide 2-17, 9-23, 16-30) | – | – | – | IC50 ([1]; Table 25, use, […]): 23.6 µM; IC50 ([2]; Table 25, use, […]): 10.8 µM; IC50 ([3]; Table 25, use, […]): 10.2 µM
CC[C@H](C)[C@@H]1NC(=O)[C@@H]2CSSC[C@@H]3NC(=O)[C@H](C(C)C)NC(=O)[C@H](CC(C)C)NC(=O)[C@H](CC(N)=O)NC(=O)[C@@H]4CCCN4C(=O)[C@H](CCCNC(=N)N)NC(=O)[C@H](CSSC[C@H](NC(=O)[C@@H](N)CC(=O)O)C(=O)N[C@@H](CC(C)C)C(=O)NCC(=O)NCCC(=O)N[C@@H](Cc4ccccc4)C(=O)N[C@@H](CCCNC(=N)N)C(=O)N[C@@H](CCCCN)C(=O)N2)NC(=O)[C@H](CSSC[C@@H](C(=O)N[C@@H](CCCCN)C(=O)N[C@@H](Cc2ccc(O)cc2)C(=O)N[C@H](C(=O)N[C@@H](Cc2ccccc2)C(N)=O)C(C)C)NC(=O)[C@H](Cc2c[nH]c4ccccc24)NC(=O)[C@H](CCCCN)NC(=O)[C@H](Cc2c[nH]cn2)NC(=O)[C@H]([C@@H](C)O)NC(=O)[C@H](CCCNC(=N)N)NC(=O)[C@H](CO)NC3=O)NC(=O)[C@H](CCCCN)NC(=O)[C@H](CC(=O)O)NC(=O)[C@H](CC(N)=O)NC(=O)[C@H](CC(=O)O)NC(=O)[C@@H]2CCCN2C1=O [compound 603] (H-DCLG[βAla]FRKCIPDNDKCCRPNLVCSRTHKWCKYVF-NH2; disulfide 2-17, 9-23, 16-30) | 15.3 µM | 9.5 µM | 11.8 µM | –
CC[C@H](C)[C@@H]1NC(=O)[C@@H]2CSSC[C@@H]3NC(=O)[C@H](C(C)C)NC(=O)[C@H](CC(C)C)NC(=O)[C@H](CC(N)=O)NC(=O)[C@@H]4CCCN4C(=O)[C@H](CCCNC(=N)N)NC(=O)[C@H](CSSC[C@H](NC(=O)[C@@H](N)CC(=O)O)C(=O)N[C@@H](CC(C)C)C(=O)NCC(=O)N[C@@H](Cc4ccccc4)C(=O)N[C@@H](CCSC)C(=O)N[C@@H](CCCNC(=N)N)C(=O)N[C@@H](CCCCN)C(=O)N2)NC(=O)[C@H](CSSC[C@@H](C(=O)N[C@@H](CCCCN)C(=O)N[C@@H](Cc2ccc(O)cc2)C(=O)N[C@@H](Cc2c[nH]c4ccccc24)C(=O)N[C@@H](Cc2ccccc2)C(N)=O)NC(=O)[C@H](Cc2c[nH]c4ccccc24)NC(=O)[C@H](CCCCN)NC(=O)[C@H](Cc2c[nH]cn2)NC(=O)[C@H](CC(C)C)NC(=O)[C@H](CCCNC(=N)N)NC(=O)[C@H](CO)NC3=O)NC(=O)[C@H](CCCCN)NC(=O)[C@H](CC(=O)O)NC(=O)[C@H](CC(N)=O)NC(=O)[C@H](CC(=O)O)NC(=O)[C@@H]2CCCN2C1=O [compound 447] (H-DCLGFMRKCIPDNDKCCRPNLVCSRLHKWCKYWF-NH2; disulfide 2-17, 9-23, 16-30) | 0.03 µM | > 5 µM | 0.02 µM | –
CC[C@H](C)[C@@H]1NC(=O)[C@@H]2CSSC[C@@H]3NC(=O)[C@H](C(C)C)NC(=O)[C@H](CC(C)C)NC(=O)[C@H](CC(N)=O)NC(=O)[C@@H]4CCCN4C(=O)[C@H](CCCNC(=N)N)NC(=O)[C@H](CSSC[C@H](NC(=O)[C@@H](N)CC(=O)O)C(=O)N[C@@H](CC(C)C)C(=O)NCC(=O)N[C@@H](C)C(=O)N[C@@H](CCSC)C(=O)N[C@@H](CCCNC(=N)N)C(=O)N[C@@H](CCCCN)C(=O)N2)NC(=O)[C@H](CSSC[C@@H](C(=O)N[C@@H](CCCCN)C(=O)N[C@@H](Cc2ccc(O)cc2)C(=O)N[C@H](C(=O)N[C@@H](Cc2ccccc2)C(N)=O)C(C)C)NC(=O)[C@H](Cc2c[nH]c4ccccc24)NC(=O)[C@H](CCC(=O)O)NC(=O)[C@H](Cc2c[nH]cn2)NC(=O)[C@H]([C@@H](C)O)NC(=O)[C@H](CCCNC(=N)N)NC(=O)[C@H](CO)NC3=O)NC(=O)[C@H](CCCCN)NC(=O)[C@H](CC(=O)O)NC(=O)[C@H](CC(N)=O)NC(=O)[C@H](CC(=O)O)NC(=O)[C@@H]2CCCN2C1=O [compound 435] | > 5 µM | 3.66 µM | > 5 µM | –
CC[C@H](C)[C@@H]1NC(=O)[C@@H]2CSSC[C@@H]3NC(=O)[C@H](C(C)C)NC(=O)[C@H](CC(C)C)NC(=O)[C@H](CC(N)=O)NC(=O)[C@@H]4CCCN4C(=O)[C@H](CCCNC(=N)N)NC(=O)[C@H](CSSC[C@H](NC(=O)[C@@H](N)CC(=O)O)C(=O)N[C@@H](CC(C)C)C(=O)NCC(=O)NCCC(=O)N[C@@H](CC(C)C)C(=O)N[C@@H](CCCNC(=N)N)C(=O)N[C@@H](CCCCN)C(=O)N2)NC(=O)[C@H](CSSC[C@@H](C(=O)N[C@@H](CCCCN)C(=O)N[C@@H](Cc2ccc(O)cc2)C(=O)N[C@H](C(=O)N[C@@H](Cc2ccccc2)C(N)=O)C(C)C)NC(=O)[C@H](Cc2c[nH]c4ccccc24)NC(=O)[C@H](CCCCN)NC(=O)[C@H](Cc2c[nH]cn2)NC(=O)[C@H]([C@@H](C)O)NC(=O)[C@H](CCCNC(=N)N)NC(=O)[C@H](CO)NC3=O)NC(=O)[C@H](CCCCN)NC(=O)[C@H](CC(=O)O)NC(=O)[C@H](CC(N)=O)NC(=O)[C@H](CC(=O)O)NC(=O)[C@@H]2CCCN2C1=O [compound 634] | – | – | – | IC50 [1, 4]: 9.3 µM; IC50 [2, 5]: 14.1 µM; IC50 [3, 6]: 18.1 µM
